Test results published in PMC7136958, “Targeting the pregnane X receptor using microbial metabolite mimicry” (EMBO Molecular Medicine, 2020).
“And” between values parts separate entries of the source, which are not always exact repeats. Equal entries are not always repeated. Marks after values point to notes of the source that are not given here.

How the values were obtained:
hPXR-LBD (PXR.1) = target: T1, hPXR-LBD (PXR.1) (Homo sapiens, UniProt O75469); test: Isothermal titration calorimetry with His-tagged hPXR-LBD; assay type: binding; details: 37°C; for Kd: single-site model
T1 construct: made in house; host or cells: E. coli BL21-Gold
T1 sequence (O75469 146-433 limits assumed): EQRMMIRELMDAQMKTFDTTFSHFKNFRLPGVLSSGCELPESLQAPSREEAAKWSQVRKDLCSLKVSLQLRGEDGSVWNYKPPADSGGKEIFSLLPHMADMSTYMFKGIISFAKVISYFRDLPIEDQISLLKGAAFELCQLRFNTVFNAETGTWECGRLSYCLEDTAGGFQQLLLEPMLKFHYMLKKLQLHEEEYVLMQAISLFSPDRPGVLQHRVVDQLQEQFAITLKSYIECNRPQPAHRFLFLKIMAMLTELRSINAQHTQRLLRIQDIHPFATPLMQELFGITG
Protocol: The cloning, expression, and purification of His‐tagged PXR‐LBD were performed as previously published (Wallace et al, 2013) with the following modifications: For protein expression, Luria–Bertani (LB) media were inoculated with a saturated culture of BL21‐Gold cells transformed with HIS‐LIC plasmid containing the PXR‐LBD construct. The mixture was allowed to shake at 37°C until the cells reached an OD600 ~ 0.6, and then, the temperature was reduced to 18°C, at which time IPTG was added (final concentration of 0.1 mM) to induce protein expression. For purification, the His‐tag was not removed, and the uncleaved protein was loaded onto the gel filtration column with buffer containing HEPES (4‐(2‐hydroxyethyl)‐1‐piperazineethanesulfonic acid) (25 mM, pH 7.5) and NaCl (150 mM).
Isothermal titration calorimetry (ITC) was carried out using a VP‐ITC microcalorimeter from MicroCal⁄Malvern Instruments (Northampton, MA, USA). […] In all the experiments, the ligand solution was injected in 10 μl aliquots into the calorimetric cell containing PXR‐LBD (ligand‐binding domain) at a concentration of 3–6 μM. […] The experiments were carried out at 37°C. The heat evolved upon each injection of the ligands was obtained from the integral of the calorimetric signal. The heat associated with binding to PXR‐LBD in the cell was obtained by subtracting the heat of dilution from the heat of reaction.

[1] = tested on: PXR target genes in LS174T PXR-KO cells; test: PXR target gene mRNA in LS174T PXR-KO cells; assay type: cell-based, human
Protocol: Figure EV5 LS174T PXR‐knockout (KO) cells are not responsive to PXR ligands • Expression of CYP1A1 and CYP3A4 mRNA in PXR‐knockout and wild‐type LS174T. […] Experiment was performed in 4 independent cell passages (6th, 8th, 10th, and 12th). The mRNA expression of CYP1A1 and CYP3A4 mRNA was determined by RT–PCR, and data were normalized to GAPDH mRNA level. (a) CYP1A1 mRNA. (b) CYP3A4 mRNA. Data are expressed as mean ± SD. • Immunoblot for PXR protein expression in PXR wild‐type and knockout (KO) cells. Experiment was performed in nine independent cell passages (P). • Fold mRNA expression of PXR target genes. Each tissue PCR was repeated in quadruplicate. The expression was normalized to internal control, GAPDH. The entire experiment was repeated n > 2 for reproducibility. The data shown are one representative experiment. Source data are available online for this figure.
Briefly, cells were first tested negative for mycoplasma.

hPXR [2] = target: T2, hPXR (Homo sapiens, UniProt O75469); test: biochemical
T2 sequence (O75469 111-434 limits assumed): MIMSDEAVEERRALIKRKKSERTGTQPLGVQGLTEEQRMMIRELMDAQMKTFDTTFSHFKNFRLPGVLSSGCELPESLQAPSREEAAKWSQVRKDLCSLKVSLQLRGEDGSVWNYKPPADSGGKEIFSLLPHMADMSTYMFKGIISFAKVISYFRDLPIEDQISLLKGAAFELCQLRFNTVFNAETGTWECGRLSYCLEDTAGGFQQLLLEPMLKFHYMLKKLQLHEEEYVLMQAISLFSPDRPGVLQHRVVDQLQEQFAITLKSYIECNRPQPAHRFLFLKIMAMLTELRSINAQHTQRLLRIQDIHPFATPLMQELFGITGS
Protocol: (§1) All PXR‐binding assays were performed as two independent experiments, each with a minimum of four replicates. Final IC50 was obtained by processing the data with GraphPad Prism 6 using standard curve interpolation (sigmoidal, 4PL, variable slope).

hPXR [3] = target: T2, hPXR; test: hPXR TR-FRET competitive binding assay (LanthaScreen); details: for 520/495 TR-FRET ratio: replicate wells; for TR-FRET signal (Fig 1e): each column a repeat
Protocol: as §1

Compound | ΔH (enthalpy of binding) (hPXR-LBD (PXR.1)) | −TΔS (hPXR-LBD (PXR.1)) | Kd (hPXR-LBD (PXR.1)) | PXR target gene induction [1] | IC50 (hPXR [2]) | 520/495 TR-FRET ratio (hPXR [3]; 0.001 uM) | 520/495 TR-FRET ratio (hPXR [3]; 0.005 uM) | 520/495 TR-FRET ratio (hPXR [3]; 0.01 uM) | 520/495 TR-FRET ratio (hPXR [3]; 0.05 uM) | 520/495 TR-FRET ratio (hPXR [3]; 0.1 uM) | 520/495 TR-FRET ratio (hPXR [3]; 0.5 uM) | 520/495 TR-FRET ratio (hPXR [3]; 1 uM) | 520/495 TR-FRET ratio (hPXR [3]; 5 uM) | 520/495 TR-FRET ratio (hPXR [3]; 10 uM) | 520/495 TR-FRET ratio (hPXR [3]; 25 uM) | TR-FRET signal (Fig 1e) (hPXR [3]; Drug Conc 5 nM) | TR-FRET signal (Fig 1e) (hPXR [3]; Drug Conc 10 nM) | TR-FRET signal (Fig 1e) (hPXR [3]; Drug Conc 25 uM) | other results
O=C(c1ccncc1)c1cc2ccccc2n1S(=O)(=O)c1ccccc1 [FKK5, (1-(phenylsulfonyl)-1H-indol-2-yl)(pyridin-4-yl)methanone] | -2.5 kcal/mol | -6.4 kcal/mol | 300 nM | did not induce | 3770 nM | 0.6965 and 0.4501 and 0.6299 and 0.6424 | 0.7274 and 0.6833 and 0.7094 and 0.6960 | 0.5474 and 0.5649 and 0.4572 and 0.5311 | 0.6957 and 0.6419 and 0.6716 and 0.6881 | 0.6678 and 0.6931 and 0.6595 and 0.6666 | 0.6903 and 0.6366 and 0.6178 and 0.6056 | 0.6447 and 0.5990 and 0.6565 and 0.5995 | 0.4264 and 0.3946 and 0.3906 and 0.3944 | 0.2760 and 0.2201 and 0.3383 and 0.4401 | 0.2211 and 0.2334 and 0.2644 and 0.2449 | 0.7094 and 0.696 and 0.7274 and 0.6833 | 0.4572* and 0.5311* and 0.5474* and 0.5649* | 0.2644 and 0.2449 and 0.2211 and 0.2334 | TR-FRET signal (Fig 1e) (hPXR [3]; Drug Conc 1 uM): 0.5995 and 0.6565 and 0.599 and 0.6447; TR-FRET signal (Fig 1e) (hPXR [3]; Drug Conc 5 uM): 0.3906 and 0.3944 and 0.4264 and 0.3946; TR-FRET signal (Fig 1e) (hPXR [3]; Drug Conc 2,5 uM): 0.4667 and 0.4734 and 0.4777 and 0.4842
C#CCC(O)(c1ccncc1)c1cc2ccccc2n1S(=O)(=O)c1ccccc1 (stereo not shown) [FKK6] | -3.5 kcal/mol | -4.1 kcal/mol | 2700 nM | did not induce | 1560 nM and ~1560 nM | 0.4136 and 0.4057 and 0.5035 and 0.4539 | 0.6293 and 0.6196 and 0.5845 and 0.6237 | 0.6566 and 0.5913 and 0.6411 and 0.6166 | 0.6583 and 0.5743 and 0.6162 and 0.6466 | 0.7390 and 0.6524 and 0.6459 and 0.6637 | 0.5359 and 0.4958 and 0.5519 and 0.5445 | 0.5035 and 0.4918 and 0.5332 and 0.5717 | 0.3896 and 0.3581 and 0.3234 and 0.3736 | 0.2832 and 0.3381 and 0.2857 and 0.3170 | 0.3206 and 0.2975 and 0.3225 and 0.3589 | 0.6293 and 0.6196 and 0.5845 and 0.6237 | 0.6566 and 0.5913 and 0.6411 and 0.6166 | 0.3206 and 0.2975 and 0.3225 and 0.3589 | TR-FRET signal (Fig 1e) (hPXR [3]; Drug Conc 0,25 uM): 0.6324 and 0.6211 and 0.6238 and 0.5836; TR-FRET signal (Fig 1e) (hPXR [3]; Drug Conc 1 nM): 0.4136* and 0.4057* and 0.5035* and 0.4539*; TR-FRET signal (Fig 1e) (hPXR [3]; Drug Conc 50 nM): 0.6583 and 0.5743 and 0.6162 and 0.6466; TR-FRET signal (Fig 1e) (hPXR [3]; Drug Conc 10 uM): 0.2832 and 0.3381 and 0.2857 and 0.317
